Several values for one entry are separate records, joined by “and”; a condition that tells them apart may be missing. Equal entries are not always repeated.
Columns and labels:
[1] = test system: Molt-4 human leukemic T-cells; experiment: In vitro photosensitizing efficacy in Molt-4 cells (MTT); assay type: cell-based; conditions: Molt-4 cells; for effect of free lactose on PDT efficacy of the photosensitizer: photosensitizer with lactose in a ratio of 1:100, without washing
Procedure: Both cell lines are known to have some expression for Galectin-1 ([…]., Baum, L. G. and Brewer, C. F., Multivalent Protein-carbohydrate Interactions. A New […] for Super Molecular Assembly and Signal Transduction, Biochemistry, 40:3009-3015, 2001). The Molt-4 cells were grown in RPMI 1640 5% FCS (Fetal calf serum) in 100% humidity with 5% CO2. Cells were transferred to phenol red free (PRF) RPMI 1640 media with 1% FCS and plated at 2.5×10^4 cells/well. After 3 hours incubation in the dark, the cells were washed once with PBS and re-suspended in prf RPMI 1640 with 1% FCS. These cells were then illuminated with a […] Quartz Halogen Lamp with IR and bandpass dichroic filters to allow light between 400 nm-700 nm, at a dose rate of 16 mW/cm^2 at 695 nm. The RIF tumor cells were grown in alpha-DMEM with 10% fetal calf serum, penicillin and streptomycin. Cells were maintained in 5% CO2, 95% air and 100% humidity. […] After overnight incubation to allow the cells to attach the photosensitizers 14 were individually added at variable concentrations. After a 3 hr incubation in the dark at 37° C., the cells were washed once with PBS, then irradiated with the same light source as above (Molt-4 procedure), and the optimal cell kill was obtained at a concentration of 1.0 μM. After PDT the cells were washed once and placed in complete media and incubated for 48 hrs. […] Louis, Mo.) was added to each well (Kessel, D., Luo, Y., Photodynamic Therapy: A Mitochondrial Inducer of Apoptosis, Cell Death Differ. 6:28-35, 1999; MacDonald, I., Morgan, […]., Litchfield, D. J. Dougherty, T. J., Subcellular Localization Patterns and their Relationship to Photodynamic Activity of Pyropheophorbide-a Derivatives, Photochem. Photobiol., 70, 789-997, 1999). After 4 hr incubation at 37° C. the MTT+media were removed and 100 μl DMSO was added to solubilize the formazin crystals. The 96-well plate was read on a microtiter plate reader (Miles Inc. Titertek Multiscan Plus MK II) at an absorbance of 560 nm. The results were plotted as percent survival of the corresponding dark (drug no light) control for each compound tested. Each data point represents the mean from 3 separate experiments, and the error bars are the standard deviation. Each experiment was done with 5 replicate wells. […] The cells were then washed once with phosphate buffer saline (PBS), carbohydrate conjugates were then added, and the cells were again incubated for an additional 3 hrs. After treating with light, the cells were re-suspended in fresh media and incubated for 48 hrs. MTT was added to the cells and incubated for an additional 4 hrs. Dimethylsulfoxide (100 μl) was then added to each well to dissolve the formazin crystals. The plates were read on a 96 well plate reader at an absorbance of 560 nm. The data are in replicates of 6 wells and are normalized to control cells (light, no drug). In another set of experiments, a similar procedure was followed, except, the cells were not washed before the light treatment. […] Louis, Mo.) was added to the cells and incubated for an additional 4 hrs. Dimethylsulfoxide (100 μl) was then added to each well to dissolve the formazin crystals. The plates were read on a 96 well plate reader (Miles Inc. Titertek Multiscan Plus MK II) at an absorbance of 560 nm. The data are in replicates of 6 wells and are normalized to control cells (light, no drug).

Gal-1 = Gal-1 (Homo sapiens, UniProt P09382); experiment: Gal-1 inhibition binding, indirect ELISA (Gal-1-HRP conjugate on asialofetuin-coated wells)
Procedure: Cell. Biochem., 43, 43-57, 1990) to eliminate the thiol requirement for retention of carbohydrate-binding activity. Coupling of alkylated galaptin to Horseradish peroxidase (HRP) was carried out by a two-step glutaraldehyde procedure as described by Engvall (Engvall E., Enzyme Immunoassay ELISA and EMIT, Methods in Enzymology, 70, 419-439, 1980). The galactin-peroxidase conjugate was prepared in 50% glycerol-1% BSA and stored at -20° C. until use. The binding of the Gal-1 to photosensitizers with and without the galactose moiety was measured by an indirect ELISA method as described by Chen et al. […] The microtiter wells (Dynatech Laboratories, Chantilly, Va.) were coated with 2 μg asial fetuin (Sigma) in 100 μl of 0.1M sodium carbonate, 0.2% NaN3, pH 9.6 at 37° C. for 3h. The plates were tightly covered with parafilm and stored at 4° C. for use within three weeks. The optimal dilution for Gal-1HRP conjugate was determined by checker-board titration. For studying the effect of saccharides and their conjugates, 60 μl aliquots of diluted Gal-1-HRP conjugate containing 1.4 μg of Gal-1 were mixed separately in duplicate with 60 μl dilute buffer as well as serially diluted test compounds and incubated for 1 h at 37° C. A 100 μl aliquot was transferred to the microtiter wells, which had been coated with […] Fetuin, blocked and washed. The plates were then incubated for 1 h at 37° C. followed by color development with ABTS (Kirkegaard & Perry lab. Gaithersburg, Md.) and reading at 405 nm on an ELISA reader.

RIF tumor cells = experiment: Cellular localization in RIF tumor cells with DPH counterstain; assay type: cell-based; conditions: RIF cells (FIGS. 9a and 9b)
Procedure: For investigating the difference in sites of localization between the photosensitizers with and without carbohydrate moieties, the fluorescence light microscopy experiments were performed in Molt-4 and RIF tumor cell lines. In a typical experiment, cells were imaged at 100× on an inverted fluorescence microscope (Carl Zeiss Inc. Axiovert 35.W.Germany) with a charged-coupled device camera (Dage-MTI, model 104722-02). Images were captured and processed by computer using Image-1 image processing software (Universal Imaging Corp., version 4.0, WestChester, Pa.). The photosensitizer fluorescence was assessed by using 530-585 nm excitation and 615 nm long-pass filter to measure emission while 338-378 nm excitation for DPH, and a 450 nm emission filter for emission (400 nm dichroic). […] In addition, […]1-(4-trimethylammonium)-6-phenyl-1,3,5-hexatriene (TMA-DPH), a hydrophobic fluorescent probe which interacts with living cells by instantaneous incorporation into plasma membrane and becomes fluorescent (Illinger, D., and Kuhry, J. G., The Kinetic Aspects of Intracellular Fluorescence Labeling with TMA-DPH Support the Maturation Model for Endocytosis in L929 Cells, The Journal of Cell Biology, 125:783-794, 1994), was added for the last 5 min of the incubation, cells were washed once with PBS and transferred to a microscope slide for imaging. […]

Gal-1, sequence (P09382 whole entry): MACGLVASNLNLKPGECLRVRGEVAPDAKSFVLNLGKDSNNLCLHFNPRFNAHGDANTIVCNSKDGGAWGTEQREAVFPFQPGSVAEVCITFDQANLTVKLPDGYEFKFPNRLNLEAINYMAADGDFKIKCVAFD

Compound	in vitro photosensitizing efficacy (in words) ([1]; 2.0 μM, 2a, 3a compared to 1a, 4a compared to 2a and 3a)	effect of free lactose on PDT efficacy of the photosensitizer [1]	increase in I50 inhibition binding affinity compared to the galactose conjugate 2 (Gal-1) [fold]	IC50 (Gal-1; ELISA, read-out: I50, inhibition of Gal-1 binding)	inhibition at 450 µM (Gal-1; at 450 μM) [%]	cellular localization with DPH as a counterstain (RIF tumor cells)	inhibition of Gal-1 binding (Gal-1; at 450 μM) [%]
C=C(C=CCO[C@@H]1O[C@H](CO)[C@@H](O[C@@H]2O[C@H](CO)[C@H](O)[C@H](O)[C@H]2O)[C@H](O)[C@H]1O)CN1C(=O)c2c3nc(cc4[nH]c(cc5nc(cc6[nH]c2c(c6C)C1=O)C(CC)=C5C)c(CC)c4C)C(C)C3CCC(=O)OC (mixture of isomers) [4a, Lactose-Chlorin conjugate joined with diene linkage]	better pbotosensitizer	complete inhibition in PDT efficacy	40	540 nM and 500 nM	29	intense plasma membrane fluorescence	–
Mesopurpurin-18-N-methyl-(2′-butadiene)imide [1a]	–	did not produce any change in photocytotoxic ability	–	–	–	diffuse intracellular localization	29

Source: patent US6849607B2, “Galectin recognized photosensitizers for photodynamic therapy” (Health Research, Inc., priority 2001, dated 2005)
